Results on seven compounds are retold here after patent US11203577B2, “Sulfonyl-structure-containing triazinone derivatives, their preparation methods and their uses in insect killing and/or bacterium killing” (Nankai University, priority 2017, dated 2021).

A value given as a limit tells only on which side of the number the result lay.

In one data set the test system is Potato late blight. In words: microbe, parasite or virus in culture. In kind it is cell-based. The following applies: Phytophthora infestans, 96 h, read-out: Fungicidal activity (%) Potato late blight.
The test system of another data set is Apple ring rot. Description: In vitro fungicidal activity, PDA colony diameter. In kind it is cell-based. The following applies: inhibition of colony diameter. As for the experimental part: (§1) Here, the test is described in an example of Alternaria solani; it can be replaced by other fungi.
(§2) In vitro testing method: Alternaria solani is inoculated to a PDA culture medium and cultured for 7 days, a fungus dish with a diameter of […] is prepared on the periphery of the colony with a punch and inoculated to a PDA culture medium that contains pesticide at a concentration of 50 mg/kg and a PDA culture medium that doesn't contain the pesticide, and are cultured for 4 days respectively; then, the colony diameters are measured, and the inhibition percentages of the pesticides are calculated by comparing with the control sample.

Data set [1] deals with Capsicum phytophthora blight. Description: In vitro fungicidal activity, PDA colony diameter. The format is cell-based. The following applies: 96 h. The procedure:
as §1, §2

The test system of the next data set is Cotton bollworms. Description: Test of insecticidal activity against cotton bollworms (pesticide mixed into feedstuff). The following applies: read-out: Mortalities (%) Cotton bollworms.
The test system of data set [2] is Corn southern leaf blight. In words: In vitro fungicidal activity, PDA colony diameter. The following applies: 50 mg/kg, inhibition of colony diameter; read-out: Fungicidal activity (%) Corn southern leaf blight. In kind it is cell-based.
The test system of a further data set is Cucumber fusarium wilt. In words: In vitro fungicidal activity, PDA colony diameter. The format is cell-based. The following applies: 96 h, 50 mg/kg, inhibition of colony diameter, read-out: Fungicidal activity (%) Cucumber fusarium wilt.
The subject of another data set is Sclerotinia rot of colza. Description: In vitro fungicidal activity, PDA colony diameter. The following applies: 96 h, 50 mg/kg, inhibition of colony diameter, read-out: Fungicidal activity (%) Sclerotinia rot of colza. The format is cell-based.
The test system of data set [3] is Cercospora brown spot of peanut. In words: In vitro fungicidal activity, PDA colony diameter. In kind it is cell-based. The following applies: 96 h, 50 mg/kg, inhibition of colony diameter, read-out: Fungicidal activity (%) Cercospora brown spot of peanut.
Another data set concerns Armyworms. Description: Test of insecticidal activity against armyworms (leaf immersion). The following applies: 600 mg/kg, 3-4 days.
Another data set deals with Wheat head blight. Description: whole plant or invertebrate. The format is cell-based. The following applies: Triticum aestivum, read-out: Fungicidal activity (%) Wheat head blight.
Data set [4] relates to bean aphides (Aphis laburni Kaltenbach). In words: Test of insecticidal activity against aphides (leaf immersion, checked after 96 h). The following applies: for insecticidal activity against aphides compared with pymetrozine: 5 mg/kg.
Method: The insecticidal activity against aphides is tested through the following steps: the tested aphides are bean aphides (Aphis laburni Kaltenbach), a normal colony fed with broad bean leaves in a laboratory. The pesticide is weighed, 1 mL DMF is added to dissolve the pesticide, then two drops of emulsifier, Tween-20 are added, and distilled water is added in an appropriate amount; the mixture is stirred to a homogeneous state to prepare pesticide solution at required concentration (see the following table for the specific concentration). […] In a control group, only emulsifier and solvent are added into distilled water, and the mixture is stirred to a homogeneous state.
The test system of another data set is Watermelon anthracnose. Description: In vitro fungicidal activity, PDA colony diameter. The format is cell-based. The following applies: 50 mg/kg, inhibition of colony diameter; read-out: Fungicidal activity (%) Watermelon anthracnose.
The test system of another data set is Rice bakanae disease. In words: In vitro fungicidal activity, PDA colony diameter. The following applies: 50 mg/kg, inhibition of colony diameter; read-out: Fungicidal activity (%) Rice bakanae disease. The format is cell-based.
In a further data set the test system is Wheat sheath blight. Description: In vitro fungicidal activity, PDA colony diameter. The following applies: 50 mg/kg, inhibition of colony diameter; read-out: Fungicidal activity (%) Wheat sheath blight. In kind it is cell-based.
The test system of a further data set is Maize borers. Description: Test of insecticidal activity against maize borers (leaf immersion). The following applies: read-out: Mortalities (%) Maize borers.
In the next data set the test system is Tomato early blight. Description: In vitro fungicidal activity, PDA colony diameter. The following applies: 50 mg/kg, inhibition of colony diameter; read-out: Fungicidal activity (%) Tomato early blight. The format is cell-based, Alternaria solani.
Data set [5] relates to mosquito larvae (Culer pipiens pallens). Description: Test of insecticidal activity against mosquito larvae (checked after 24 h). The following applies: 24 h, read-out: Mortalities (%) against mosquito larvae.
Another data set has as its system Rice sheath blight. Description: In vitro fungicidal activity, PDA colony diameter. In kind it is cell-based. The following applies: 50 mg/kg, inhibition of colony diameter; read-out: Fungicidal activity (%) Rice sheath blight.
The mark [6] stands for this setting: Aphis, 96 h, read-out: Mortalities (%) against aphides.

Method for Cotton bollworms: Method of testing against cotton bollworms: the pesticide is mixed into the feedstuff, i.e., 3 mL prepared solution is added into about 27 g freshly prepared feedstuff; thus, required concentration is obtained by diluting by 10 times.

Regarding `CC1=NNC(=O)N(NS(=O)(=O)c2ccc(C#N)cc2)C1` [Ia-25, 4-cyano-N-(6-methyl-3-oxo-2,3-dihydro-1,2,4-triazin-4(5H)-yl)-benzenesulfonamide], the inhibition of growth at 50 mg/kg in the data set on Potato late blight was determined as 18.7%; in data set [1] it was 22.2%; in the data set with Cucumber fusarium wilt, 8.8%; in the data set on Sclerotinia rot of colza it was 26.3%; in [3], 12%. Moreover, the inhibition at 50 mg/kg is 4.1% with Apple ring rot; 0% in data set [2]; 5.4% with Wheat head blight; 24.6% in the data set with Watermelon anthracnose; 17.2% with Rice bakanae disease; 14.3% with Wheat sheath blight. Besides, the inhibition at 50 mg/kg with Tomato early blight was found to be 16.4%; in the data set on Rice sheath blight it was 13.9%. Moreover, the mortality at 600 mg/kg came to 35% with Cotton bollworms, 100% in [4] (setting [6]) and 25% in the data set on Maize borers. Further, in the data set on Armyworms, the “Mortalities (%) Armyworms” value turned out to be 10%. Also, in data set [4], the “insecticidal activity against aphides compared with pymetrozine” value was “equivalent to the insecticidal activity of pymetrozine”. The values for the mortality at 5 mg/kg in data set [4] (setting [6]) and in data set [5] were 20% and 100%, respectively. Also, the mortality at 10 mg/kg in [4] (setting [6]) was found to be 85%; in data set [5], 100%. In data set [4] (setting [6]), the mortality at 100 mg/kg was 100%. In data set [5], the mortality at 2 mg/kg was 40%.
Consider `CC1=NNC(=O)N(NS(=O)(=O)c2cccc3ccccc23)C1` [Ia-8, N-(6-methyl-3-oxo-2,3-dihydro-1,2,4-triazin-4(5H)-yl)-naphthyl-1-sulfonamide], for which the inhibition of growth at 50 mg/kg with Potato late blight worked out at 28.6%; in [1], 26.9%; with Cucumber fusarium wilt, 20.5%; in the data set with Sclerotinia rot of colza it was 16.7%; in [3] it was 19.2%. For the same compound, the inhibition at 50 mg/kg worked out at 0% in the data set on Apple ring rot; 8.3% in data set [2]; 33.3% in the data set on Wheat head blight; 0% with Watermelon anthracnose; 7.4% in the data set with Rice bakanae disease; 30.2% with Wheat sheath blight. In addition, the inhibition at 50 mg/kg with Tomato early blight was 20%; in the data set with Rice sheath blight, 17.9%. For the same compound, the mortality at 600 mg/kg was 0% in the data set with Cotton bollworms, 90% in data set [4] (setting [6]) and 0% in the data set with Maize borers. In the data set on Armyworms, the “Mortalities (%) Armyworms” value is given as 10%. Also, the results for the mortality at 10 mg/kg in data set [4] (setting [6]) and in data set [5] were 25% and 15%, respectively. In [4] (setting [6]), the mortality at 100 mg/kg stood at 85%.
As for `CCS(=O)(=O)N(N1CC(C)=NNC1=O)S(=O)(=O)CC` [Ib-2, n-(ethylsulfonyl)-N-(6-methyl-3-oxo-2,3-dihydro-1,2,4-triazin-4(5H)-yl)-ethylsulfonamide], the inhibition of growth at 50 mg/kg was 18.5% in the data set with Potato late blight; 38.8% in [1]; 10% with Cucumber fusarium wilt; 48.3% in the data set with Sclerotinia rot of colza; 15.8% in data set [3]. Moreover, the inhibition at 50 mg/kg in the data set with Apple ring rot turned out to be 58.6%; in data set [2], 16.7%; in the data set with Wheat head blight it was 13.3%; in the data set with Watermelon anthracnose, 12.5%; with Rice bakanae disease, 27.8%; in the data set with Wheat sheath blight, 61.4%. Further, the inhibition at 50 mg/kg in the data set on Tomato early blight amounted to 33.3%; in the data set with Rice sheath blight it was 27%. The mortality at 600 mg/kg was 25% with Cotton bollworms, 85% in data set [4] (setting [6]) and 5% in the data set with Maize borers. In the data set on Armyworms, the “Mortalities (%) Armyworms” value came to 5%. Moreover, the mortality at 10 mg/kg in data set [5] is 15%.
In the case of `CC1=NNC(=O)N(NS(=O)(=O)c2ccc(F)cc2)C1` [Ia-18, 4-fluoro-N-(6-methyl-3-oxo-2,3-dihydro-1,2,4-triazin-4(5H)-yl)-benzenesulfonamide], the inhibition of growth at 50 mg/kg in the data set with Potato late blight is 18.7%; in data set [1], 5.6%; in the data set with Cucumber fusarium wilt it was 14.7%; with Sclerotinia rot of colza it was 21%; in [3], 12%. Besides, the inhibition at 50 mg/kg was 8.1% with Apple ring rot; 3.1% in [2]; 2.7% with Wheat head blight; 14.7% in the data set on Watermelon anthracnose; 20.7% with Rice bakanae disease; 4.3% in the data set with Wheat sheath blight. Besides, the inhibition at 50 mg/kg in the data set with Tomato early blight was determined as 11.9%; in the data set on Rice sheath blight it was 22.1%. Moreover, the mortality at 600 mg/kg in the data set on Cotton bollworms was 0%; in [4] (setting [6]) it was 100%; in the data set with Maize borers, 25%. The “Mortalities (%) Armyworms” value in the data set with Armyworms worked out at 50%. The “insecticidal activity against aphides compared with pymetrozine” value in data set [4] is listed as “equivalent to the insecticidal activity of pymetrozine”. Also, the mortality at 5 mg/kg came to 45% in data set [4] (setting [6]) and 100% in data set [5]. The mortality at 10 mg/kg in data set [4] (setting [6]) and in data set [5] was 100% each time. Moreover, the mortality at 100 mg/kg in [4] (setting [6]) was found to be 100%. Besides, the mortality at 2 mg/kg in data set [5] was determined as 40%.
As to `CC1=NNC(=O)N(NS(=O)(=O)c2ccccc2C)C1` [Ia-10, 2-methyl-N-(6-methyl-3-oxo-2,3-dihydro-1,2,4-triazin-4(5H)-yl)-benzenesulfonamide], the inhibition of growth at 50 mg/kg stood at 18.7% in the data set with Potato late blight; 9.4% in data set [1]; 5.9% in the data set with Cucumber fusarium wilt; 21% with Sclerotinia rot of colza; 4% in data set [3]. The inhibition at 50 mg/kg was 10.8% in the data set with Apple ring rot; 37.5% in [2]; 13.5% with Wheat head blight; 39.2% in the data set with Watermelon anthracnose; 13.8% in the data set on Rice bakanae disease; 14.3% with Wheat sheath blight. Further, the figures for the inhibition at 50 mg/kg with Tomato early blight and in the data set on Rice sheath blight were 9% and 17.4%, respectively. Besides, the mortality at 600 mg/kg in the data set with Cotton bollworms stood at 50%; in [4] (setting [6]), 100%; in the data set with Maize borers, 40%. In the data set with Armyworms, the “Mortalities (%) Armyworms” value is 40%. The mortality at 2.5 mg/kg in data set [4] (setting [6]) was 25%. For the same compound, the mortality at 5 mg/kg in [4] (setting [6]) was 90%; in data set [5], 100%. Also, the mortality at 10 mg/kg in [4] (setting [6]) and in data set [5] was 100% each time. Moreover, the mortality at 100 mg/kg in [4] (setting [6]) was found to be 100%. The mortality at 2 mg/kg in data set [5] is 40%.
Turning to `COC(=O)Nc1nc2ccccc2[nH]1` [Carbendazim, reference compound], the inhibition of growth at 50 mg/kg with Potato late blight is 100%; in [1], below 50%; with Cucumber fusarium wilt, below 50%; with Sclerotinia rot of colza, 100%; in data set [3] it was below 50%. For the same compound, the inhibition at 50 mg/kg in the data set with Apple ring rot is below 50%; in [2], 100%; with Wheat head blight, 100%; in the data set on Watermelon anthracnose it was 100%; in the data set with Rice bakanae disease, below 50%; with Wheat sheath blight, 100%. Besides, the inhibition at 50 mg/kg with Tomato early blight is below 50%; with Rice sheath blight, 100%.
Take `N#Cc1c(Cl)c(Cl)c(Cl)c(C#N)c1Cl` [Chlorothalonil, reference compound]: the inhibition of growth at 50 mg/kg was 86.4% in the data set on Potato late blight; 100% in data set [1]; 100% in the data set on Cucumber fusarium wilt; below 50% with Sclerotinia rot of colza; 73.3% in [3]. The inhibition at 50 mg/kg is 100% with Apple ring rot; 91.3% in data set [2]; below 50% in the data set with Wheat head blight; 91.3% in the data set with Watermelon anthracnose; 100% in the data set on Rice bakanae disease; 100% with Wheat sheath blight. Moreover, the figures for the inhibition at 50 mg/kg with Tomato early blight and in the data set with Rice sheath blight were 73.3% and 100%, respectively.
